Test results reported in patent US20260263357A1, “PHASE SHIFTING INTRAVITREAL TAMPONADE” (Avant Sciences, Inc., priority 2023, published 2026).
Like-named read-outs stand apart in the source and are kept apart here.

What was measured:
[1] = cited from earlier work
[2] = cited from earlier work; remark: listed apart in the source
[3] = Experimental ultrasound absorbance (amplitude attenuation coefficient); assay type: physicochemical
Text: In some embodiments, the compounds of Structure 1 are capable of absorbing ultrasonic wave energy. The capacity of a given chemical to convert applied ultrasound from vibrational energy into heat is termed its ultrasonic absorbance, which itself varies depending upon the initial temperature and the frequency of the applied ultrasound. Additionally, the native vitreous within biological tissues approximates that of water, which itself has an ultrasonic absorption profile; thus, there is a baseline transmission of acoustic energy through ocular tissues, and this characteristic is routinely leveraged when it comes to various forms of imaging and therapy (Southern, Australas J Ultrasound Med. 2009 February; 12 (1): 32-37). In some embodiments, a compound that can preferentially absorb ultrasound more readily than that of water has the capacity to disproportionately absorb applied ultrasonic energy versus that of vitreous within the vitreous cavity. As such absorption would lead to local increase in temperature, thus facilitate the phase shift to a gaseous state.
With reference to Table 3, a compound with a larger amplitude attenuation coefficient absorbs ultrasound more than a compound that has a lower amplitude attenuation coefficient. It is clear that each of the compounds of Structure 1 (as shown in Table 3) is orders of magnitude more likely to absorb ultrasonic energy than water/vitreous. […] Indeed, it is notable that water, the least absorptive compound shown, is not only clearly symmetric on both a rotational axis and the mirror plane, but also has some of the strongest hydrogen bond forces in all of chemistry, allowing it to “pack itself together” much more readily than the other compounds on the list.

[4] = Table 5; cited from earlier work
[5] = system: New Zealand white rabbits; assay: Intraocular pressure measurements after intravitreal injection; assay type: in vivo, rabbit
Text: (§1) Additionally, to address concerns about biological toxicity of these compounds, intraocular pressure measurements and both scotopic a-wave, b-wave, and photopic b-wave ERGs were done on all 6 rabbits in the study, without any statistically notable adverse signals (FIG. 2-5).
Additionally, to address concerns about biological toxicity of these compounds, intraocular pressure measurements were done on all 4 rabbits in the study, without any statistically notable adverse signals.

[6] = system: New Zealand white rabbits; assay: Fundus imaging of tamponade bubble after injection into rabbit vitreous cavity (phase shift and removal); assay type: in vivo; conditions: 8 microliters injected into rabbit vitreous cavity
Procedure: The biological safety of a compound of Structure 1 is tested within an animal model. In particular, 2,2,2-Trifluoroethyl 1,1,2,2-tetrafluoroethyl ether was tested within a New Zealand white rabbits, an animal model in line with previous retinal tamponade studies (Santos et al., Retina, 33 (1): p 120-127 (1991)).
(§2) FIG. 1A includes a set of control retinal fundus images (near-infrared images IR and corresponding color images MC) for which balanced salt solution BSS (effectively water) was injected into a rabbit vitreous cavity. […] In other words, 2,2,2-Trifluoroethyl 1,1,2,2-tetrafluoroethyl ether was empirically determined to successfully phase shift under biological conditions at around 1 week post placement, and then subsequently carried out of the body over the next 2 months. […]
as §2, with “6A” for “1A”, “1,1,2,3,3,3-Hexafluoropropyl difluoromethyl” for “2,2,2-Trifluoroethyl 1,1,2,2-tetrafluoroethyl”, “1-3 days” for “1 week”, “subsequently fully” for “subsequently”, “by Day 8.” for “over the next 2 months.”

[7] = system: New Zealand white rabbits; assay: Scotopic a-wave, b-wave and photopic b-wave ERGs after intravitreal injection; assay type: in vivo, rabbit; conditions: baseline and 2 months
Text: as §1

[8] = Table 2, selected fluorinated ethers
[9] = Table 1, selected fluorinated alkanes
[10] = 4 rabbits, up to about 1 month after injection, FIG. 7
[11] = 6 rabbits, up to about two months after injection, FIG. 2

CCOC(F)(F)C(F)(F)F [Ethyl pentafluoroethyl ether]
Boiling Point [1, 8]: 30 °C | Flammable? [2, 8]: YES

CC(F)(F)OCC(F)(F)F [1,1-Difluoroethyl 2,2,2-trifluoroethyl ether]
Flammable? [2, 8]: YES

COC(F)(F)C(F)(F)C(F)(F)F [Heptafluoropropyl methyl ether]
Boiling Point [1, 8]: 34 °C | Flammable? [2, 8]: No

O [Water, reference compound]
Amplitude Attenuation Coefficient [3]: 0.002 db/cm-MHz

FCCC(F)F [1,1,3-Trifluoropropane]
Flammable? [2, 9]: YES

FC(C(F)(F)F)C(F)(F)OCC(F)(F)C(F)(F)C(F)(F)F (centres unmarked) [1,1,1,2,2,3,3-Heptafluoro-4-(1,1,2,3,3,3-hexafluoropropoxy)butane, reference compound]
Boiling Point ([1]; Table 5): 102 °C | Density [4]: 1.63 g/mL

FC(F)(F)C(F)(F)C(F)(F)F [Perfluoropropane]
Flammable? [2, 9]: No

FC(F)OCC(F)(F)C(F)(F)F [Difluoromethyl 2,2,3,3,3-pentafluoropropyl ether]
Boiling Point [1, 8]: 46 °C | Boiling Point ([1]; Table 5): 46 °C | Flammable? [2, 8]: No | Amplitude Attenuation Coefficient [3]: 0.57 db/cm-MHz | Density [4]: 1.46 g/mL

FC(OC(F)(F)C(F)(F)C(F)(F)F)C(F)(F)F (centres unmarked) [Heptafluoropropyl 1,2,2,2-tetrafluoroethyl ether]
Boiling Point [1, 8]: 40 °C | Boiling Point ([1]; Table 5): 40 °C | Flammable? [2, 8]: No | Amplitude Attenuation Coefficient [3]: 3.58 db/cm-MHz | Density [4]: 1.538 g/mL

FC(F)OC(F)(F)C(F)C(F)(F)F (centres unmarked) [1,1,2,3,3,3-Hexafluoropropyl difluoromethyl ether]
Boiling Point [1, 8]: 47 °C | Boiling Point ([1]; Table 5): 47 °C | Intraocular pressure compared to control (Balanced Salt Solution) [5, 10]: not significantly different | Intraocular pressure relative to normal physiologic range [5, 10]: nor were their intraocular pressures outside of normal physiologic range throughout the study | Day by which agent is fully carried out of the body ([6]; fundus images to D30): ≤ 8 days | Flammable? [2, 8]: No | Amplitude Attenuation Coefficient [3]: 3.35 db/cm-MHz | Density [4]: 1.5 g/mL

FC(F)C(F)(F)C(F)(F)F [1,1,1,2,2,3,3-Heptafluoropropane]
Boiling Point [1, 9]: −16 °C | Flammable? [2, 9]: No

FCCC(F)(F)F [1,1,1,3-Tetrafluoropropane]
Flammable? [2, 9]: YES

FCC(F)(F)C(F)F [1,1,2,2,3-Pentafluropropane]
Boiling Point [1, 9]: 26 °C | Flammable? [2, 9]: YES

COC(F)C(F)(F)F (centres unmarked) [1,2,2,2-Tetrafluoroethyl methyl ether]
Flammable? [2, 8]: YES

COC(F)(F)C(F)F [tetrafluoroethyl methyl ether]
Boiling Point [1, 8]: 37 °C | Flammable? [2, 8]: YES

FC(F)C(F)(F)OCC(F)(F)F [2,2,2-Trifluoroethyl 1,1,2,2-tetrafluoroethyl ether]
Boiling Point [1, 8]: 56 °C | Boiling Point ([1]; Table 5): 56.7 °C | Intraocular pressure compared to control (Balanced Salt Solution) [5, 11]: not significantly different | Intraocular pressure relative to normal physiologic range [5, 11]: nor were their intraocular pressures outside of normal physiologic range throughout the study | Time over which agent is carried out of the body after phase shift ([6]; fundus images to D56): ~2 months | Flammable? [2, 8]: No | Amplitude Attenuation Coefficient [3]: 2.65 db/cm-MHz | Scotopic a-wave ERG amplitude (rod and cone cells, dark-adapted) vs control (Balanced Salt Solution) ([7]; FIG. 3): no significant difference | Scotopic b-wave ERG amplitude (bipolar cells, dark-adapted) vs control (Balanced Salt Solution) ([7]; FIG. 4): no significant difference | Photopic b-wave ERG amplitude (bipolar cells, light-adapted) vs control (Balanced Salt Solution) ([7]; FIG. 5): no significant difference | Density [4]: 1.487 g/mL

FCOCF [Bis(fluoromethyl) ether]
Boiling Point [1, 8]: 34 °C | Flammable? [2, 8]: YES

FC(F)C(F)(F)C(F)F [1,1,2,2,3,3-Hexafluoropropane]
Boiling Point [1, 9]: 5 °C | Flammable? [2, 9]: No

FC(F)C(F)(F)COCC(F)(F)C(F)F [1,1,2,2-Tetrafluoro-3-(2,2,3,3-tetrafluoropropoxy)propane, reference compound]
Boiling Point ([1]; Table 5): 35 °C | Density [4]: 1.627 g/mL
